Results reported in the supplement of paper PMC10307832.

Columns and labels:
Experiment in all cases: relative viability (nuclei count vs DMSO), 5 days (fraction); higher = more cells survive
Olaparib + Navitoclax = compound: O=C(c1cc(Cc2n[nH]c(=O)c3ccccc23)ccc1F)N1CCN(C(=O)C2CC2)CC1 [Olaparib] + CC1(C)CCC(c2ccc(Cl)cc2)=C(CN2CCN(c3ccc(C(=O)NS(=O)(=O)c4ccc(N[C@H](CCN5CCOCC5)CSc5ccccc5)c(S(=O)(=O)C(F)(F)F)c4)cc3)CC2)C1 [Navitoclax] (partner 0.5 µM)
How it was run: (§1)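 For relative viability, nuclei counts in treated wells were divided by those in vehicle wells. Lung cancer cell lines had been pin-tool dosed in 1536-well plates the day after seeding and cultured for 5 days, then fixed and stained in one step (final 0.05% Triton X-100, 1% formaldehyde, 1 ug/ml Hoechst) and imaged at 4×. Doses were one drug alone or a fixed anchor-drug dose plus five library-drug doses (not always all listed) in √10 steps, and values are duplicate-plate medians.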

Carfilzomib + Olaparib = compound: CC(C)C[C@H](NC(=O)[C@H](CCc1ccccc1)NC(=O)CN1CCOCC1)C(=O)N[C@@H](Cc1ccccc1)C(=O)N[C@@H](CC(C)C)C(=O)[C@@]1(C)CO1 [Carfilzomib] + O=C(c1cc(Cc2n[nH]c(=O)c3ccccc23)ccc1F)N1CCN(C(=O)C2CC2)CC1 [Olaparib] (partner 8 µM)
How it was run: as §1

Olaparib + Foretinib = compound: O=C(c1cc(Cc2n[nH]c(=O)c3ccccc23)ccc1F)N1CCN(C(=O)C2CC2)CC1 [Olaparib] + COc1cc2c(Oc3ccc(NC(=O)C4(C(=O)Nc5ccc(F)cc5)CC4)cc3F)ccnc2cc1OCCCN1CCOCC1 [Foretinib] (partner 0.25 µM)
How it was run: as §1

Crizotinib + Pemetrexed = compound: C[C@@H](Oc1cc(-c2cnn(C3CCNCC3)c2)cnc1N)c1c(Cl)ccc(F)c1Cl [Crizotinib] + Nc1nc2[nH]cc(CCc3ccc(C(=O)N[C@@H](CCC(=O)O)C(=O)O)cc3)c2c(=O)[nH]1 [Pemetrexed] (partner 0.2 µM)
How it was run: as §1

Row | Cell Line | relative viability (Olaparib + Navitoclax; first compound 0.08 µM) | relative viability (Olaparib + Navitoclax; first compound 0.253 µM) | relative viability (Olaparib + Navitoclax; first compound 2.53 µM) | relative viability (Olaparib + Navitoclax; first compound 8 µM) | relative viability (Carfilzomib + Olaparib; first compound 0.001 µM) | relative viability (Carfilzomib + Olaparib; first compound 0.003162 µM) | relative viability (Carfilzomib + Olaparib; first compound 0.01 µM) | relative viability (Carfilzomib + Olaparib; first compound 0.03162 µM) | relative viability (Carfilzomib + Olaparib; first compound 0.1 µM) | relative viability (Olaparib + Foretinib; first compound 0.08 µM) | relative viability (Olaparib + Foretinib; first compound 0.253 µM) | relative viability (Olaparib + Foretinib; first compound 2.53 µM) | relative viability (Olaparib + Foretinib; first compound 8 µM) | relative viability (Crizotinib + Pemetrexed; first compound 0.01 µM) | relative viability (Crizotinib + Pemetrexed; first compound 0.03162 µM) | relative viability (Crizotinib + Pemetrexed; first compound 0.1 µM) | relative viability (Crizotinib + Pemetrexed; first compound 0.3162 µM) | relative viability (Crizotinib + Pemetrexed; first compound 1 µM)
1 | SK-LU-1 | 0.941 | 0.785 | 0.749 | 0.409 | 0.421 | 0.54 | 0.438 | 0.198 | 0.147 | 0.91 | 0.657 | 0.748 | 0.526 | 0.887 | 0.911 | 0.815 | 1.02 | 0.922
2 | SK-MES-1 | 1.15 | 1.07 | 1.13 | 0.825 | 0.709 | 0.847 | 0.775 | 0.276 | 0.146 | 1.05 | 0.861 | 0.907 | 0.889 | 0.879 | 0.928 | 0.927 | – | 0.924
3 | SW 1573 | 0.958 | 0.795 | 0.858 | 0.671 | 0.587 | 0.487 | 0.215 | 0.0532 | 0.0533 | 1.01 | 0.971 | 0.737 | 0.629 | – | 0.797 | 0.749 | 0.676 | 0.908
4 | UMC-11 | 0.398 | 0.321 | 0.259 | 0.207 | 0.342 | 0.326 | 0.315 | 0.347 | 0.205 | 0.893 | 0.959 | 0.784 | 0.484 | 0.864 | 0.76 | 0.732 | 0.814 | 0.841
